Test results reported in patent US20240383911A1, “AZAINDAZOLE MACROCYCLE COMPOUNDS AND USES THEREOF” (BROADENBIO CO., LTD, priority 2021, published 2024).

Columns and labels:
[1] = target: T1, FLT3 (Homo sapiens, UniProt P36888); experiment: FLT3 kinase activity inhibition test (HTRF); type: biochemical; settings: read-out: IC50, inhibitory effects on FLT3 kinase activity
T1 sequence (P36888 27-993): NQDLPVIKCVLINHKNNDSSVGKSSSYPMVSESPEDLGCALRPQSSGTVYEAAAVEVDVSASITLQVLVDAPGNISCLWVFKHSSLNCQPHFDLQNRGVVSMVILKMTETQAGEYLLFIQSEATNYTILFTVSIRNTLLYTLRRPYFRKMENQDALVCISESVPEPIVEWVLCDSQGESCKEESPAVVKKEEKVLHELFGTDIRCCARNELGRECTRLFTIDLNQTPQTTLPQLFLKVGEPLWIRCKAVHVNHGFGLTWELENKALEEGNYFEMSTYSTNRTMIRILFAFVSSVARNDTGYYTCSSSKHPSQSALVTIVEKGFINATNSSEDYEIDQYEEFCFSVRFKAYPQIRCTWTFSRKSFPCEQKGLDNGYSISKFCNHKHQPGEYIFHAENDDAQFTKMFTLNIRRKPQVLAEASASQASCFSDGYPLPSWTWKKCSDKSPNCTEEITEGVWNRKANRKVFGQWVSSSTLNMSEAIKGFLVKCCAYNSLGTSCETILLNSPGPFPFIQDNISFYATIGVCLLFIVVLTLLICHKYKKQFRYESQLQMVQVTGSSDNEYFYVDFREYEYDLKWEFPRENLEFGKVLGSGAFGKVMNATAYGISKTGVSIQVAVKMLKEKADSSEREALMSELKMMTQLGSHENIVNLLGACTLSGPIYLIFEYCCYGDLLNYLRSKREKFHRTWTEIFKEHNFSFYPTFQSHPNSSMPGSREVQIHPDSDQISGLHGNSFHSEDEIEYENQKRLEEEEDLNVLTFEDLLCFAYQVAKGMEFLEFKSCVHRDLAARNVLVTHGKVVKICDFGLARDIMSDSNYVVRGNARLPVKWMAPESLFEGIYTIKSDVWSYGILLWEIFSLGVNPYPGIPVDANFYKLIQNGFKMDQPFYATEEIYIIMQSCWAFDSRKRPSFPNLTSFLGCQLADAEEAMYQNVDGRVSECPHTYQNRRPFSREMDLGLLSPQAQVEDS
Description: (§1) Tested compounds: compounds prepared in the Examples of this invention.
(§2) Prepare compound stock solution: dissolve the test compound in 100% DMSO to make a 10 mM stock solution. Dilute the stock solution of the test compound by 5 times with 100% DMSO, make a 4-fold equal dilution in a 96-well dilution plate, add 1 μL of the compound to 39 μL of kinase reaction buffer (1×kinase buffer, 5 mM MgCl2, 1 mM DTT), and shake on a microplate shaker for 20 minutes. 4×Positive control (4 μL of positive compound solution of the starting concentration, add 196 μL of kinase buffer) and 4×negative control (4 μL of 100% DMSO, add 196 μL of kinase buffer).
(§3) (1) Use 1×kinase reaction buffer to prepare 2.5×FLT3 kinase solution (160 μM), transfer 2 μL of the kinase solution to the 384 reaction plate, and add 1 μL of the test compound solution of gradient concentration to the 384 reaction plate (Greiner, Cat #784075), centrifuge for 1 minute (1000 rpm), and incubate at 25° C. for 10 minutes.
(§4) (2) Use 1×kinase reaction buffer to prepare 2.5×TK-substrate-biotin (2.5 μM) and 2.5×ATP (2.5 μM), mix well, and add 2 μL of the TK-substrate-biotin/ATP solution to the 384 reaction plate, centrifuge for 30 seconds (1000 rpm), and incubate at 25° C. for 40 minutes.
(§5) (3) Use HTRF detection buffer to prepare 2×Sa-XL 665 (125 nM) and 1×TK-antibody-Cryptate. Add 5 μL of a mixture of Sa-XL 665 and TK-antibody-Cryptate solutions to each well, centrifuge for 30 seconds (1000 rpm), and react at room temperature for 1 hour.
(§6) (4) The fluorescence signal is read using a Biotek multi-function plate reader, and the IC50 (half inhibitory concentration) of the compound is obtained using a four-coefficient nonlinear fitting formula.

[2] = target: KDR (Homo sapiens, UniProt P35968); experiment: KDR kinase activity inhibition test (HTRF); type: biochemical; settings: read-out: IC50, inhibitory effects on KDR kinase activity
KDR, sequence (P35968 20-1356): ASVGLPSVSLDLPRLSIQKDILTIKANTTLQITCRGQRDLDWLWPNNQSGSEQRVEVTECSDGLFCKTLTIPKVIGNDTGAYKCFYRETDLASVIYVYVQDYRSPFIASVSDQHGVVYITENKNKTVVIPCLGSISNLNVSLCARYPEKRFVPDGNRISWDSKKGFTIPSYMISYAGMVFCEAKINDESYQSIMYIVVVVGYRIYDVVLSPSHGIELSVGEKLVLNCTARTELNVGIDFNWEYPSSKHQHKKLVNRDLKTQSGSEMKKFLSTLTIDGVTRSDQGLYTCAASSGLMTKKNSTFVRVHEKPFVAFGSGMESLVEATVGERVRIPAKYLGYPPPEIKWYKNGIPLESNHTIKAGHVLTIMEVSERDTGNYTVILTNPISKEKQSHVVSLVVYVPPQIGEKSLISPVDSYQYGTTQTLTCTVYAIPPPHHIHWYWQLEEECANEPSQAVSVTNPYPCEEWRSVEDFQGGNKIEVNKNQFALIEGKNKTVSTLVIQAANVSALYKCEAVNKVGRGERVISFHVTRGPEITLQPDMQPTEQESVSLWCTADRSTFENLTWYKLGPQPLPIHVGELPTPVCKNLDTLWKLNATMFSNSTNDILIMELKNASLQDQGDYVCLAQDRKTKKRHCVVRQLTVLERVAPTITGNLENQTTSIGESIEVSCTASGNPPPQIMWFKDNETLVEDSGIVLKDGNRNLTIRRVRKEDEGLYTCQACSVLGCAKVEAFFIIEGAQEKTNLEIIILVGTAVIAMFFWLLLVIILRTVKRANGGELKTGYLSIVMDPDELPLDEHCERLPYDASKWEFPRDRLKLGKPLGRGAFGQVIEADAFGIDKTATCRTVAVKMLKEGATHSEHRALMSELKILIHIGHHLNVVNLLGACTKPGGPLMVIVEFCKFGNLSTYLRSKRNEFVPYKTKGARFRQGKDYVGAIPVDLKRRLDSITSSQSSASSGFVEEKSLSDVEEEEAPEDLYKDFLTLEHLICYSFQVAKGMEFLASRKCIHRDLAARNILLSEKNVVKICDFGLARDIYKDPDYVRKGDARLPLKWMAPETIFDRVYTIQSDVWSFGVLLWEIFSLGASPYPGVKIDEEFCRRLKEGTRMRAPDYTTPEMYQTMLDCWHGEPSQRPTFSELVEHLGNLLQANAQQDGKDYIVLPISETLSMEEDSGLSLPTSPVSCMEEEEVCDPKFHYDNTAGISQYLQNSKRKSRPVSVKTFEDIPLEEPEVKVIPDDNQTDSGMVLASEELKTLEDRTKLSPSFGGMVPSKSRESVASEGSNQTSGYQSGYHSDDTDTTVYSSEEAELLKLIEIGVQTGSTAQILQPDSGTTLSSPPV
Description: as §1, §2
as §3, with “2.5×KDR” for “2.5×FLT3”, “(250” for “(160”
as §4, §5, §6

[3] = tested on: Human Jurkat-E6-1 cells; experiment: Detection of IL-2 production by Jurkat cells using ELISA; type: cell-based; settings: anti-CD3/anti-CD28 stimulation 24 hours, read-out: Percentage of the amount of IL-2 secreted by compound treated vs DMSO-treated cells; for activity at 1 µM: tested compound 1.0 μM; for activity at 0.33 µM: tested compound 0.33 μM
Description: as §1
Human Jurkat-E6-1 cells were incubated with various concentrations of tested compounds for 30 minutes in a humidified incubator at 37° C. and 5% CO2. Cells were transferred to cell culture plates pre-coated with anti-human CD3 antibody, then soluble anti-human CD28 antibody was added, and cells were stimulated for 24 hours at 37° C. and 5% CO2 in a humidified incubator. The cell culture medium was collected after centrifugation, and was then transferred to a 96-well transparent microtiter plate (Thermo) pre-coated with anti-human IL-2 antibody, incubated at room temperature for 2 hours with gently shaking, washed with washing buffer for 4 times, and then followed the ELISA MAX Deluxe Set Human IL-2 (BioLegend) kit procedures, used a microplate reader (Molecular Device, i3X) to read the GD value at 450 nm. The best standard curve was selected by the microplate reader application software, and the corresponding concentration was calculated according to the GD value of the standard. Results are expressed as a percentage (%) of the amount of IL-2 secreted by compound-treated vs DMSO-treated cells.

[4] = target: HPK1 (Homo sapiens, UniProt Q92918); experiment: HPK1 kinase activity inhibition test (ADP-Glo, luminescence); type: biochemical; settings: 2 μM ATP, 5 nM HPK1, read-out: IC50, inhibitory effects on HPK1 kinase activity
HPK1, sequence (Q92918 whole entry): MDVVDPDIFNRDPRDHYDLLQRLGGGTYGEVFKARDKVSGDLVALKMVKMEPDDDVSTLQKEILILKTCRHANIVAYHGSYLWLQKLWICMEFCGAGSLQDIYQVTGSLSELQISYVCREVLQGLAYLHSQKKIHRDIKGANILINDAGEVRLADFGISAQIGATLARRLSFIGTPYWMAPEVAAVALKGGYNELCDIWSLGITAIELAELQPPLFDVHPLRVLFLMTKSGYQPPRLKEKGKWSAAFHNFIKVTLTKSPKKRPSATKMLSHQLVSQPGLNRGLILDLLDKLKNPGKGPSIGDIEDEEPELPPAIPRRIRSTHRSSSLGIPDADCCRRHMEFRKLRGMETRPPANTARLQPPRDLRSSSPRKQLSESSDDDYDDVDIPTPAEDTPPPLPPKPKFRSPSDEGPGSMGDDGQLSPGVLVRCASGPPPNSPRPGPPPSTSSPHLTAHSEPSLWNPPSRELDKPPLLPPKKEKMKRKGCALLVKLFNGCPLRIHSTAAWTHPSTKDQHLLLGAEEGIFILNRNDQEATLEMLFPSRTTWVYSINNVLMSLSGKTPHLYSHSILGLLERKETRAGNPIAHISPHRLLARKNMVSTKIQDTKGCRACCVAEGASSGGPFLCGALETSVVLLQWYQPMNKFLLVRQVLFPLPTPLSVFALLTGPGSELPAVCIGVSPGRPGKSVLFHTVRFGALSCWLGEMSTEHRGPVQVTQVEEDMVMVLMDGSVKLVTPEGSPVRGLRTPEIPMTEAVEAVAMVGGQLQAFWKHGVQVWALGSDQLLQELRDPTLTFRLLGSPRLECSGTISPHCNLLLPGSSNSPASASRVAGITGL
Description: The kinase activity of HPK1 is manifested as activity of autophosphorylation and phosphorylation of downstream substrates. In the process of autophosphorylation, additional substrates are not required, and ATP is consumed to generate ADP. The amount of the product is measured by ADP-Glo reagent and luminescence method to reflect kinase activity.
as §1
Preparation of compound stock solution: dissolve the test compound in 100% DMSO to make a 10 mM stock solution;
Preparation of 4×Kinase Reaction Buffer:
Preparation of 2×HPK1 Kinase Solution:
Preparation of 4×ATP Mixture:
Dilute the stock solution of the test compound by 5 times with 100% DMSO, make a 4-fold equal dilution in a 96-well dilution plate, add 1 μL of the compound to 49 μL of kinase reaction buffer, and shake on a microplate shaker for 20 minutes. Transfer 2 μL of 2×HPK1 kinase solution to 384 reaction plate, add 1 μL of the test compound to the 384 reaction plate (Greiner, Cat #784075), centrifuge for 1 minute (1000 rpm/min), incubate at 25° C. for 10 minutes. Transfer 1 μL of the 4×ATP mixture to a 384 reaction plate, centrifuge for 1 minute (1000 rpm/min), and incubate at 25° C. for 60 minutes. In the reaction system, the final concentration of DMSO is 0.5%. Transfer 4 μL of ADP-Glo to a 384 reaction plate, centrifuge for 1 minute (1000 rpm/min), and incubate at 25° C. for 40 minutes. Transfer 8 μL detection solution to a 384 reaction plate, centrifuge for 1 minute (1000 rpm/min), and incubate at 25° C. for 40 minutes. The […] is read using a Biotek multi-function plate reader, and the IC50 (half inhibitory concentration) of the compound is obtained using a four-coefficient nonlinear fitting formula.

Row | Compound | IC50 [1] [nM] | IC50 [2] [nM] | activity at 1 µM [3] [%] | IC50 [4] [nM] | activity at 0.33 µM [3] [%] | activity at 3 µM ([3]; tested compound 3.0 μM) [%]
1 | CN1C2CCC1CN(c1ccc3cc1OCCCOc1cccc(F)c1-c1cc4c-3n[nH]c4cn1)C2 [Compound 144, 16-fluoro-5-{8-methyl-3,8-diazabicyclo[3.2.1]octan-3-yl}-7,11-dioxa-19,22,23-triazapentacyclo[16.5.2.1^2,6.0^12,17.0^21,24]hexacosa-1(23),2,4,6(26),12(17),13,15,18,20,24-decaene] | ≤ 5 | ≤ 5 | 517 | ≤ 5 | – | –
2 | CN1CCN(c2ccc3cc2OCCCOCc2cccc(F)c2-c2cc4c-3n[nH]c4cn2)C[C@H]1CO [Compound 122, [(2S)-4-{17-fluoro-7,11-dioxa-20,23,24-triazapentacyclo[17.5.2.1^2,6.0^13,18.0^22,25]heptacosa-1(24),2,4,6(27),13(18),14,16,19,21,25-decaen-5-yl}-1-methylpiperazin-2-yl]methanol] | ≤ 5 | ≤ 5 | – | ≤ 5 | 345 | –
3 | Fc1cccc2c1-c1cc3c(n[nH]c3cn1)-c1ccc(N3CCN4CCOC[C@H]4C3)c(c1)OCCCOC2 [Compound 103, 5-[(9aR)-octahydropyrazino[2,1-c][1,4]oxazin-8-yl]-17-fluoro-7,11-dioxa-20,23,24-triazapentacyclo[17.5.2.1^2,6.0^13,18.0^22,25]heptacosa-1(24),2,4,6(27),13(18),14,16,19,21,25-decaene] | ≤ 5 | ≤ 5 | – | ≤ 5 | 580 | –
4 | Fc1cccc2c1-c1cc3c(n[nH]c3cn1)-c1ccc(N3CCNCC3)c(c1)OCCCOC2 [Compound 10, 17-fluoro-5-(piperazin-1-yl)-7,11-dioxa-20,23,24-triazapentacyclo[17.5.2.1^2,6.0^13,18.0^22,25]heptacosa-1(24),2(27),3,5,13,15,17,19,21,25-decaene] | ≤ 5 | 5 to 50 | 298 | ≤ 5 | – | –
5 | Fc1cccc2c1-c1cc3c(n[nH]c3cn1)-c1ccc(N3C[C@@H]4C[C@H]3CN4C3COC3)c(c1)OCCCOC2 [Compound 153, 17-fluoro-5-[(1S,4S)-5-(oxetan-3-yl)-2,5-diazabicyclo[2.2.1]heptan-2-yl]-7,11-dioxa-20,23,24-triazapentacyclo[17.5.2.1^2,6.0^13,18.0^22,25]heptacosa-1(24),2,4,6(27),13(18),14,16,19,21,25-decaene] | – | – | – | ≤ 5 | 369 | –
6 | OCCN1CCN(c2ccc3cc2OCCCOCc2cccc(F)c2-c2cc4c-3n[nH]c4cn2)CC1 [Compound 12, 17-fluoro-5-(4-(2-hydroxyethyl)piperazin-1-yl)-7,11-dioxa-20,23,24-triazapentacyclo[17.5.2.1^2,6.0^13,18.0^22,25]heptacosa-1(24),2(27),3,5,13,15,17,19,21,25-decaene] | ≤ 5 | 5 to 50 | – | ≤ 5 | – | –
7 | CN1CCN(c2ccc3cc2OCC(O)COc2cccc(F)c2-c2cc4c-3n[nH]c4cn2)CC1 (centres unmarked) [Compound 114, 16-fluoro-5-(4-methylpiperazin-1-yl)-7,11-dioxa-19,22,23-triazapentacyclo[16.5.2.1^2,6.0^12,17.0^21,24]hexacosa-1(23),2,4,6(26),12(17),13,15,18,20,24-decaen-9-ol] | – | – | – | ≤ 5 | 239 | –
8 | O=C1OC[C@H]2CN(c3ccc4cc3OCCCOCc3cccc(F)c3-c3cc5c-4n[nH]c5cn3)CCN12 [Compound 123, (8aR)-7-{17-fluoro-7,11-dioxa-20,23,24-triazapentacyclo[17.5.2.1^2,6.0^13,18.0^22,25]heptacosa-1(24),2,4,6(27),13(18),14,16,19,21,25-decaen-5-yl}-hexahydro-1H-[1,3]oxazolo[3,4-a]pyrazin-3-one] | – | – | 440 | ≤ 5 | – | –
9 | CN1CCN(c2ccc3cc2OCCCCOc2cccc(F)c2-c2cc4c-3n[nH]c4cn2)CC1 [Compound 7, 17-fluoro-5-(4-methylpiperazin-1-yl)-7,12-dioxa-20,23,24-triazapentacyclo[17.5.2.1^2,6.0^13,18.0^22,25]heptacosa-1(24),2(27),3,5,13,15,17,19,21,25-decaene] | – | – | – | 5 to 50 | – | 404
10 | OC1CCN(C2CCN(c3ccc4cc3OCCCOCc3cccc(F)c3-c3cc5c-4n[nH]c5cn3)CC2)CC1 [Compound 112, 1′-{17-fluoro-7,11-dioxa-20,23,24-triazapentacyclo[17.5.2.1^2,6.0^13,18.0^22,25]heptacosa-1(24),2,4,6(27),13(18),14,16,19,21,25-decaen-5-yl}-[1,4'-bipiperidin]-4-ol] | – | – | 245 | ≤ 5 | – | –
